Reference: patent US20030100769A1, “Cyclic amidine compounds” (priority 2000, published 2003)
pEC50, pKi: −log10 of the molar value.

How the values were obtained:
[1] = molecular target: T1, human α4β2 subtype of nicotinic acetylcholine receptors (Homo sapiens, UniProt P17787+P43681); assay: Agonist activities at human α4β2 subtype of nicotinic acetylcholine receptors expressed in Xenopus oocytes (membrane potential holding method); format: cell-based; settings: for pEC50: held at −50 mV, calculated in comparison with the reaction with 10 μM acetylcholine (100%), read-out: Agonist activity (ED50)
T1 construct: expressed in transfected cells; host or cells: Xenopus laevis oocytes injected with hnACh-R α4 and β2 cRNA (pSP64 polyA)
Description: The agonist effect in human α4β2 subtype of nicotinic acetylcholine receptors are examined by using human nicotinic acetylcholine receptors prepared in oocytes of Xenopus laevis, which is injected with cRNA from the corresponding cloning cDNA of human α4 and β2 subunits of nicotinic acetylcholine receptors, and to measure the expression of the electric response by adding the test compounds to perfusion solution by means of membrane potential holding method.
Agonist Activities at Human α4β2 Subtype of Nicotinic Acetylcholine Receptors
(1) Preparation of cRNA of Human α4β2 Subtype of Nicotinic Acetylcholine Receptors
The obtained hnACh-R α4 cDNA and hnACh-R β2 cDNA were inserted to the cRNA expression vector (pSP64 polyA) having SP6 RNA promoter to construct hnACh-R α4/pSP64 polyA and hnACh-R β2/pSP64 polyA, respectively. After cutting from expression vector by restriction enzyme (EcoRI), transcription was performed by affecting SP6 RNA polymerase in the presence of cap analogues to obtain hnACh-R α4 cRNA and hnACh-R β2 cRNA, respectively.
(2) Expression of Human α4β2 Subtype Nicotinic Acetylcholine Receptors in Xenopus Oocytes
Oocytes were purchased from Kitanihonseibutsukyohzai Co., Ltd., which were already enucleated from Xenopus laevis, and used in this experiment.
The oocytes were treated with collagenase (Sigma type I; 1 mg/ml) in calcium-free modified Birth's solution (88 mM of NaCl, 1 mM of KCl, 2.4 mM of NaHCO3, 0.82 mM of MgSO4, 15 mM of HEPES, pH 7.6) under gently stirring at room temperature for 90 minutes, and washed out the enzyme from the tissue. Then, oocytes were separated from ovarian follicle by tweezers, and isolated oocytes were placed in antibiotics containing modified Birth's solution (88 mM of NaCl, 1 mM of KCl, 2.4 mM of NaHCO3, 0.82 mM of MgSO4, 15 mM of HEPES, pH 7.6, and 0.1 v/v % of mixture solution containing of penicillin and streptomycin for incubation; Sigma Co.). […] In oocytes, heterogeneous quintuple [(α4)2(β2)3] was composed by translation of injected cRNAs, and ion channel receptors were constructed on cell membrane.
(3) Agonist Activities at Human α4β2 Subtype of Nicotinic Acetylcholine Receptors
The recordings of responses at human α4β2 subtype of nicotinic acetylcholine receptors by means of membrane potential holding method were performed as follow. […] Test compounds were added to the perfusion solution, and recorded the peak strength of induced inward current. In order to normalize the responses of test compounds, the responses with acetylcholine (Ach) were recorded before and after application of the test compounds. Generally in the oocytes just after isolated, the response of intrinsic muscarinic acetylcholine receptors, which is inward current caused by activation of calcium dependence chloride ion channels with increase of the intracellular calcium concentration by stimulation of receptors, is observed. […] Therefore, the responses observed in oocytes with injection of hnACh-R α4 cRNA and hnACh-R β2 cRNA, i.e., the inward current induced by the intracellular influx of sodium ion according to the stimulation of receptors, would be the freshly observed responses of human α4β2 subtype nicotinic acetylcholine receptors.

[2] = molecular target: T2, α4β2 subtype of nicotinic acetylcholine receptors (Rattus norvegicus, UniProt P09483+P12390); assay: Binding assay at α4β2 subtype of nicotinic acetylcholine receptors ([3H]-cytisine, rat brain membrane)
T2 construct: examined using rat brain membrane obtained from whole homogenized brain; from tissue; host or cells: rat whole brain membranes (Fischer-344 male rats)
Source text: The methods for evaluating the binding capabilities of the compounds at nicotinic acetylcholine receptors are different by subtypes of receptors. The binding capabilities of the compounds at α4β2 nicotinic acetylcholine receptors are examined using rat brain membrane obtained from whole homogenized brain, and determining the inhibiting rate of the compounds against [^3H]-cytisine binding to said brain membrane. Furthermore, the binding capabilities of the compounds at α1β1γδ nicotinic acetylcholine receptors are examined using homogenized rat muscle, and determining the inhibiting rate of the compounds against [^3H]-α-bungarotoxin binding to said muscle homogenate.
Binding Assays at α4β2 Subtype of Nicotinic Acetylcholine Receptors
(1) Preparation of Rat Brain Membrane Containing α4β2 Subtype of Nicotinic Acetylcholine Receptors
Rats were housed in the breeding cage controlled of the room temperature at 23±1° C., and the humidity of 55±5% for 1 to 4 weeks. Rats (3 to 4 rats per a cage) were housed with lights on for 12 hours daily (from 7:00 to 19:00), and allowed free access to food and water.
Preparation of rat brain membrane containing α4β2 subtype of nicotinic acetylcholine receptors was performed as follow. That is, rat brains were isolated just after sacrificed by decapitation, washed with ice-cooled saline solution and then frozen at −80° C. with liquid nitrogen and stored till using. After thawing the frozen brain, the brain was homogenized in 10 volumes of ice-cooled buffer solution (50 mM of Tris-HCl, 120 mM of NaCl, 5 mM of KCl, 1 mM of MgCl2, 2 mM of CaCl2; pH 7.4; 4° C.) using homogenizer (HG30, Hitachi Kohki Ltd.) for 30 seconds, and the homogenate were centrifuged under 1,000×G for 10 minutes at 4° C. The resulting supernatant was separated and the pellet was homogenized again with half volume of aforementioned prior buffer solution and centrifuged under the same conditions. Combined supernatant was further centrifuged under 40,000×G for 20 minutes at 4° C. The pellet was suspended in buffer solution and used for binding assays at receptors.
(2) Experiments of α4β2 Subtype of Nicotinic Acetylcholine Receptors Binding
Suspensions of membrane pellets containing 400-600 μg of protein were added to test tubes containing test compounds and [^3H]-cytisine (2 nM) in a final volume of 200 μl and incubated for 75 minutes in ice-cooled bath. The samples were isolated by vacuum filtration onto Whatman GF/B filters, which were prerinsed with 0.5% polyethylenimine just prior to sample filtration, using Brandel multi manifold cell harvester. The filters were rapidly washed with buffer solution (3×1 ml). The filters were counted in 3 ml of clearsol I (Nacalai Tesque Inc.).
The analyses of the experimental results were conducted by using the Accufit Competition Program (Beckman Ltd.).

T2 sequence (P09483 31-630): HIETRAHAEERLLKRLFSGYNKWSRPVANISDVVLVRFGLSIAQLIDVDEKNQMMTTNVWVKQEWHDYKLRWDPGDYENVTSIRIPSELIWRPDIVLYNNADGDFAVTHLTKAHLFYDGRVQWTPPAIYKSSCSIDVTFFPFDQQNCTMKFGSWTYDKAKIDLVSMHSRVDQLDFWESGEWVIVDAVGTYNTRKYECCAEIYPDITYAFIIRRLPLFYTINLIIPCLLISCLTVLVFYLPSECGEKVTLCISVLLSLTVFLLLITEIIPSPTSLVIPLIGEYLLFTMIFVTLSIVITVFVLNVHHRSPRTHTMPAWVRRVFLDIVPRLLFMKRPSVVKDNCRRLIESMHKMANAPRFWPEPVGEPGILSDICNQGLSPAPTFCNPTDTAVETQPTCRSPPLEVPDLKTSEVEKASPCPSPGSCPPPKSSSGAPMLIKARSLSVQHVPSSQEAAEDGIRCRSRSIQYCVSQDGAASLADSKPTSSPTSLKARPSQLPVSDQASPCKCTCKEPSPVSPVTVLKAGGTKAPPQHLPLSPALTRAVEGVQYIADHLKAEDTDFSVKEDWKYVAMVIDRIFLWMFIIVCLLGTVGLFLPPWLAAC
T2 sequence (P12390 25-500): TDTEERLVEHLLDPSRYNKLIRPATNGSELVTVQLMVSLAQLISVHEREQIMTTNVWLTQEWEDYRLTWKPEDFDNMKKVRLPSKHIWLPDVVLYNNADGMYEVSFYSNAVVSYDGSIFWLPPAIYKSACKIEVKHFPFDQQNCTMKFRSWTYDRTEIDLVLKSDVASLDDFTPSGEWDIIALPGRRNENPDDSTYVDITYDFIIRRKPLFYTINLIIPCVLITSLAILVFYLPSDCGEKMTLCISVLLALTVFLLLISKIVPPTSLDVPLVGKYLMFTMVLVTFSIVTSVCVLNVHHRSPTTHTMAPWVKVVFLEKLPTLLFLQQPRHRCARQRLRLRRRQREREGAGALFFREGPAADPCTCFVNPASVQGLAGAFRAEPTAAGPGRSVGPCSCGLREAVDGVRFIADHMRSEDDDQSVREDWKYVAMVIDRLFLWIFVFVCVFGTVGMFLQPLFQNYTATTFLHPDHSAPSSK
T1 sequence (P43681 29-627 limits assumed): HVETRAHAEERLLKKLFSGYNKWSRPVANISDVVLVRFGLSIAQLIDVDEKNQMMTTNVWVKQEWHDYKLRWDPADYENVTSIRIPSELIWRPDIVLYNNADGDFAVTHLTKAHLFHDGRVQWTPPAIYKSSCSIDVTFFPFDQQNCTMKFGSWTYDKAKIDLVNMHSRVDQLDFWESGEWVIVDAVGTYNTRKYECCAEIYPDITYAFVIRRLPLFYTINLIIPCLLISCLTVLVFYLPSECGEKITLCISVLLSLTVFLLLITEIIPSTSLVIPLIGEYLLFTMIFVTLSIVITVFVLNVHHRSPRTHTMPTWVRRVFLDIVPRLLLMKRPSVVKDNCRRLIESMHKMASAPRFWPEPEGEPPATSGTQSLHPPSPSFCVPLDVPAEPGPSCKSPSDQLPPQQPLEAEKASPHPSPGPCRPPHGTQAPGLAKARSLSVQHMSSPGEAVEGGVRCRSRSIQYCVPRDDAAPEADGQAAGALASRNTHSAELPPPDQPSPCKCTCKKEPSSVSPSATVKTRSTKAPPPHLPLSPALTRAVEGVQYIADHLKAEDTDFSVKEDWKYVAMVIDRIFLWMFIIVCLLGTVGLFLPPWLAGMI
T1 sequence (P17787 26-502): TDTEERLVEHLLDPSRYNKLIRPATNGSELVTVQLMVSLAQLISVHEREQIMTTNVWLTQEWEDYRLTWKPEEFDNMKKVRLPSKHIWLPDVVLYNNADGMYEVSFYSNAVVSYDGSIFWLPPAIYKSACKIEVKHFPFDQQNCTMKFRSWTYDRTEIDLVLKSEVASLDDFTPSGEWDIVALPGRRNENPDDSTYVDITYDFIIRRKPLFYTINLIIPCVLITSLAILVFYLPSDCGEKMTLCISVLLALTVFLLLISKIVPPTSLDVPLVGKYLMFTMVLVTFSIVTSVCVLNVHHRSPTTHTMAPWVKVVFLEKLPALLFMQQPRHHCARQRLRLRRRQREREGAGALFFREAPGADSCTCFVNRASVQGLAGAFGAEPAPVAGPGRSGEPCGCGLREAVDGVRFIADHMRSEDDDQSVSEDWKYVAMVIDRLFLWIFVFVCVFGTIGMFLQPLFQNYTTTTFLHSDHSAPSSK

| Structure (SMILES) | pEC50 [1] | pKi [2] | Agonist activity: control % by response at 100 μM of the test compound ([1]; 100 μM test compound, relative to 10 μM acetylcholine (100%)) |
| --- | --- | --- | --- |
| Clc1ccc(C2=NCCCN2)cn1 [Compound 2, 2-(6-chloro-3-pyridyl)-1,4,5,6-tetrahydropyrimidine] | 5.47 | 7.89 | – |
| CN1CCN=C1c1ccc(Cl)nc1 [Compound 3, 2-(6-chloro-3-pyridyl)-1-methyl-2-imidazoline] | 4.36 | 7.35 | – |
| Clc1ncc(C2=NCCCN2)s1 [Compound 22, 2-(2-chloro-5-thiazolyl)-1,4,5,6-tetrahydropyrimidine] | – | 6.37 | (13.2%) |
